Measurements published in BigSolDB 2.1.

O=C1CCCC(=O)C1
solubility (mole fraction)
Conditions	288.15 K	293.15 K	298.15 K	303.15 K	308.15 K	313.15 K	318.15 K	323.15 K	328.15 K
in 2-butanone	0.0273	0.0355	0.0534	0.0727	0.0991	0.133	0.162	0.215	0.264
in THF	0.0855	0.109	0.135	0.164	0.208	0.246	0.307	0.347	0.392
in acetone	0.0488	0.0624	0.0834	0.108	0.132	0.173	0.211	0.245	0.282
in acetonitrile	0.0156	0.0198	0.0258	0.035	0.044	0.0538	0.0685	0.09	0.113
in chloroform	0.238	0.256	0.29	0.317	0.364	0.4	0.432	0.47	0.505
in ethyl acetate	0.0126	0.0155	0.0194	0.0244	0.0307	0.039	0.0515	0.0626	0.0819
in ethyl butyrate	0.0083	0.0103	0.0125	0.0148	0.0184	0.0221	0.0266	0.0322	0.0379
in ethyl formate	0.0109	0.0141	0.0182	0.0231	0.0287	0.0359	0.0492	0.0591	0.0694
in ethyl propionate	0.0118	0.0139	0.017	0.0203	0.0246	0.0294	0.0353	0.041	0.0495
in isopropyl acetate	0.0125	0.0146	0.017	0.0194	0.0228	0.0269	0.0302	0.0368	0.0424
in methyl acetate	0.0146	0.02	0.0247	0.0313	0.0406	0.0524	0.0714	0.0886	0.105
in n-butyl acetate	0.0119	0.0141	0.0168	0.0202	0.0237	0.0282	0.0347	0.0403	0.0457
in n-propyl acetate	0.0121	0.0147	0.0176	0.0214	0.0263	0.0324	0.0381	0.0457	0.0535
in toluene	0.00171	0.00244	0.00335	0.00445	0.00577	0.00803	0.0106	0.0136	0.0165
